Laboratory results from patent publication EP0353047B1, “Use of imidazopyrazole derivatives as analgesics and anti-inflammatory agents” (Sankyo Company Limited, priority 1988, dated 1990).
Marks after values point to notes of the source that are not given here.

How the values were obtained:
[1] = molecular target: T1, 5-lipoxygenase (Cavia porcellus, UniProt A0A286X958); assay: 5-Lipoxygenase inhibitory activity (5-HITE production by polymorphonuclear leukocyte enzyme fraction); type: biochemical, male guinea pigs of the Hartley strain; details: inhibition of production of 5-HITE from [14C]-arachidonic acid; 30°C, 30 minutes, pH 7.4; read-out: IC₅₀ (converted)
T1 construct: The supernatant was isolated as an enzyme fraction; from tissue; host or cells: Casein-elicited peritoneal polymorphonuclear leukocytes of male Hartley guinea pigs; sonicated, 10,000 G supernatant
T1 sequence (A0A286X958 1-674): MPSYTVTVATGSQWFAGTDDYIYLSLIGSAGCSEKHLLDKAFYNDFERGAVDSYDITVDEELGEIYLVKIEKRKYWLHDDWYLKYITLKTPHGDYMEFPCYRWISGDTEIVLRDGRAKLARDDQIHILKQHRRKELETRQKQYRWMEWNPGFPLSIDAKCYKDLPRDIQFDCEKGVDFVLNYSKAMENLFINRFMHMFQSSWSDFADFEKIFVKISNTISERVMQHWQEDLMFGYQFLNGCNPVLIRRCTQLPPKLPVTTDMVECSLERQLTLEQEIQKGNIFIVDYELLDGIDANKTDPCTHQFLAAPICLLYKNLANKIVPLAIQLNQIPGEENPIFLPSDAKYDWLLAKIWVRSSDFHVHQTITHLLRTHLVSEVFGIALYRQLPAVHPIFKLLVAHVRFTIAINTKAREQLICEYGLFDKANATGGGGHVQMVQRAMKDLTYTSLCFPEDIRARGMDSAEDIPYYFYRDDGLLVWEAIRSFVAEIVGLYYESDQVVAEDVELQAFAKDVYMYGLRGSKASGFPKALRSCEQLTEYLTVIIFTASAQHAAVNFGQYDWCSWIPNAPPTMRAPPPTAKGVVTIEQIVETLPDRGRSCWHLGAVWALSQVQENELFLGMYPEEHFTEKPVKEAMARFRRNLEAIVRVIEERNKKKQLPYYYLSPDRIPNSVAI
Procedure: The preparation of polymorphonuclear leukocytes was carried out by the method of Sbarra et al [Sbarra A.J. and Karnovsky, M. L.; J. Biol. Chem., 234, 1355 - 1362 (1959)]. Specifically, a 2% w/v aqueous casein solution was administered intraperitoneally to male guinea pigs of the Hartley strain, each weighing about 400 - 500 g. The polymorphonuclear leukocytes were harvested from the peritoneal exudate 14 - 16 hours after the administration. The preparation of enzyme was carried out by the method of Yoshimoto et al [Yoshimoto, T., Furakawa, M., Yamamoto, S., Horie, T. and Watanabe-Kohno, S.; Biochem. Biophys. Commun., 116, 612 - 618 (1983)]. The harvested polymorphonuclear leukocytes were suspended in a 50 mM phosphate buffer solution (pH = 7.4) containing 10% ethylene glycol and 1mM EDTA at a density of 1 x 10⁸ cells/ml. The suspension was subjected to ultrasound twice, each time for 30 seconds at 20 KHz, and was then centrifuged for 10 minutes at 10,000 G. The supernatant was isolated as an enzyme fraction, which was stored at -80°C. The enzyme assay was carried out by a modification of Ochi's method [Ochi, K., Yoshimoto, T., Yamamoto., S., Taniguchi, K. and Miyamoto, T.; J. Biol. Chem., 258, 5754-5758 (1983)]. Specifically, 2 mM CaCℓ₂, 1 mM glutathione, 2 mM ATP (adenosine-5′-triphosphate), 16 µM [¹⁴C]-arachidonic acid (0.16 µCi, dissolved in 5 µl ethanol), the test compound (dissolved in 4 µl DMSO) and the enzyme solution (containing 200 µg of protein) were made up to a final volume of 200 µl in a 50 mM potassium phosphate buffer solution (pH = 7.4). The test compound and the enzyme were preincubated at 30°C for 5 minutes. After the addition of the arachidonic acid, the mixture was incubated at 30°C for 30 minutes. The reaction was stopped by the addition of 50µl of 0.2N citric acid. The reaction mixture was then extracted with ethyl acetate and the extract was concentrated under a stream of nitrogen. The concentrate was subjected to thin layer chromatography and eluted with a 85 : 15 : 0.1 by volume mixture of diethyl ether, petroleum ether and acetic acid. The 5-hydroxyicosatetraenoic acid (5-HITE) fraction of the plate was identified with a radioactive scanner and the radioactivity was measured. The IC₅₀ (µg/ml) was calculated against the inhibitory rate of the production of 5-HITE of a control group, to which a test compound was not administered.

[2] = system: carrageenan-induced edema; assay: Anti-inflammatory effect (carrageenan edema method); type: in vivo, rats of the Wistar strain; details: Rattus norvegicus, percent inhibition of carrageenan-induced edema, oral
Procedure: The percent inhibition against carrageenan-induced edema in rats of the Wistar strain, using the conventional method of C.A. Winter, E.A. Risley, G.W. Nuss [J. Pharmacol., Exp. Therap., 141, 369 (1963)]. Except where otherwise noted, the dose of test compound was 50 mg/kg.

[3] = system: rats of the Wistar strain; assay: Analgesic effect (Randall-Selitto method); type: in vivo; details: oral; for ED50 / responders at 50 mg/kg: Rattus norvegicus; for Analgesic effect (Randall-Selitto) / responders at 50 mg/kg: fraction of animals; for Analgesic effect (Randall-Selitto): dose 25 mg/kg (*)
Procedure: These tests were conducted according to the Randall-Selitto method using rats of the Wistar strain [L.O. Randall, J.J. Selitto: Arch. int. Pharmacodyn. 111, 409 (1957)]. Except where otherwise noted, the dose of test compound was 50 mg/kg.

[4] = system: carrageenan-induced edema; assay: Anti-inflammatory effect (carrageenan edema method); type: in vivo, rats of the Wistar strain; details: oral, Wistar rats; for ED50: Rattus norvegicus, ID₅₀
[5] = system: male mice of the ddy strain; assay: Acute toxicity; type: in vivo; details: fraction of animals; dose 300 mg/kg oral in 0.5% carboxymethyl cellulose, observed for 7 days
Procedure: The test animals employed were male mice of the ddy strain (age: 5 weeks). […] The dose of test compound was 300 mg/kg.

[6] = system: inflammation induced by anti-rat IgG rabbit serum; assay: Anti-inflammatory effect (reversed passive alusas reaction, Evans blue extraction); type: in vivo, rats of the Sprague-Dawley strain; details: oral; for inhibition in vivo at 50 mg/kg / inhibition in vivo at 25 mg/kg: 2.5 h, percent inhibition of inflammation relative to control group; for ED50: ID₅₀, Sprague-Dawley rats
Procedure: The test animals were rats of the Sprague-Dawley strain, which had first been fasted for 17 hours. The hair was trimmed from their dorsal portions by means of a hair clipper, and 0.1 ml/site of anti-rat IgG rabbit serum was injected intracutaneously at the trimmed part to induce inflammation. Except in the case of the control animals, to which no anti-inflammatory drug was administered, the test drug was administered orally immediately before inflammation was induced. Except where otherwise noted, the dose of test compound was 50 mg/kg. Two hours after induction of inflammation, a 1% by volume solution of Evans blue in physiological saline was injected intravenously into the tail of each rat in an amount of 1 ml per each animal. 30 minutes after this injection, the rats were sacrificed with carbon dioxide and their skins were peeled off to extract the chromogen of the blue spots. In more detail, the skins were cut into small pieces and extracted with 5 ml of an extraction solvent at room temperature for 2 days. The supernatant obtained by centrifugation was then measured spectrophotometrically at an absorption wavelength of 605 nm. The percent inhibition of inflammation of the group of rats to which the test drug was administered was determined relative to the control group.

[7] = system: gastric acid secretions; assay: Anti-ulcer activity: suppression of gastric acid secretions (Shay method); type: in vivo, rats; details: gastric acid secretion

Molecule	ED50 ([3]; ED₅₀, Wistar rats) [mg/kg]	ED50 [4] [mg/kg]	Toxicity (mouse) [5]	inhibition in vivo at 50 mg/kg [2] [%]	responders at 50 mg/kg [3] [%]	inhibition in vivo at 50 mg/kg [6] [%]	ED50 [6] [mg/kg]	further results
CCCCCCCCCc1c(-c2ccccc2)nn2cc[nH]c12 [Example 41]	–	–	–	–	–	–	–	IC50 [1]: 2.13 µM
Cc1nn2cc[nH]c2c1-c1ccccc1 [Example 30, 6-methyl-7-phenyl-1H-imidazo[1,2-b]pyrazole]	5.9	25	0/3	–	–	–	–	inhibition in vivo at 25 mg/kg [2]: 50%; IC50 [1]: 2.53 µM; Analgesic effect (Randall-Selitto) [3]: 5/5*
FC(F)(F)c1cccc(-c2cc3[nH]ccn3n2)c1 [Example 2]	–	–	0/3	54	60	69.6	–	–
CCCCc1c(-c2ccccc2)nn2cc[nH]c12 [Example 12]	–	–	–	–	–	–	–	IC50 [1]: 3.93 µM
FC(F)(F)c1ccc(-c2cc3[nH]ccn3n2)cc1 [Example 1, 6-(4-Trifluoromethylphenyl)-1H-imidazo[1,2-b]pyrazole]	–	–	0/3	44.2	80	–	–	–
CC(C)c1c(-c2ccccc2)nn2cc[nH]c12 [Example 11]	–	–	–	–	–	–	–	IC50 [1]: 8.88 µM
c1coc(-c2cc3[nH]ccn3n2)c1 [Example 22, 6-(2-Furyl)-1H-imidazo[1,2-b]pyrazole]	–	–	0/3	76.3	–	–	–	Analgesic effect (Randall-Selitto) [3]: 4/5*
Cc1c(-c2cccs2)nn2cc[nH]c12 [Example 21, 7-Methyl-6-(2-thienyl)-1H-imidazo[1,2-b]pyrazole]	10	22.3	0/3	53.4	100	–	7.9	inhibition in vivo at 25 mg/kg [6]: 78.1%
CN(C)CCCOc1nn(Cc2ccccc2)c2ccccc12 [Benzydamine, reference compound]	> 200	193	–	–	–	–	–	–
c1ccc(-c2cc3[nH]ccn3n2)cc1 [Example 3, 6-phenyl-1H-imidazo[1,2-b]pyrazole]	6.1	36.6	0/5	65.1	100	88	13.9	Suppression rate (%) ([7]; dosage 10 mg/kg i.d.): 66%; Suppression rate (%) ([7]; dosage 30 mg/kg i.d.): 85%
3-methoxy-1-(4-methoxy-6-methylpyrimidin-2-yl)-5-methylpyrazole [Mepirizole, reference compound]	–	–	–	–	–	–	–	Analgesic Randall-Selitto (ED₅₀) ([3]; ED₅₀, Wistar rats): 63.9 mg/kg; Anti-inflammatory Carrageenan (ID₅₀) [4]: 106 mg/kg
CN/C(=N/CCSCc1nc[nH]c1C)NC#N [Cimetidine, reference compound]	–	–	–	–	–	–	–	Suppression rate (%) ([7]; dosage 10 mg/kg i.d.): 62%; Suppression rate (%) ([7]; dosage 30 mg/kg i.d.): 58%
CCc1c(-c2ccccc2)nn2cc[nH]c12 [Example 10]	–	–	0/3	51.3	100	56.3	–	IC50 [1]: 5.21 µM
COc1ccc(-c2cc3[nH]ccn3n2)cc1 [Example 5]	–	–	0/3	53.7	100	67.6	–	–
c1csc(-c2cnn3cc[nH]c23)c1 [Example 32, 7-(2-thienyl)-1H-imidazo[1,2-b]pyrazole]	6.9	23.4	0/3	–	–	–	10.9	inhibition in vivo at 25 mg/kg [2]: 54.7%; Analgesic effect (Randall-Selitto) [3]: 5/5*; inhibition in vivo at 25 mg/kg [6]: 82.5%
c1ccc(-c2cnn3cc[nH]c23)cc1 [Example 29, 7-Phenyl-1H-imidazo[1.2-b]pyrazole]	5.1	20.1	0/3	–	–	–	14.8	inhibition in vivo at 25 mg/kg [2]: 63.2%; Analgesic effect (Randall-Selitto) [3]: 5/5*; inhibition in vivo at 25 mg/kg [6]: 72.2%
CCc1c(-c2cccs2)nn2cc[nH]c12 [Example 24]	–	–	0/3	71.9	–	–	–	Analgesic effect (Randall-Selitto) [3]: 4/5*
c1csc(-c2cc3[nH]ccn3n2)c1 [Example 20, 6-(2-Thienyl)-1H-imidazo[1,2-b]pyrazole]	8	17.1	0/3	89.3	100	79.6	7	Suppression rate (%) ([7]; dosage 10 mg/kg i.d.): 84%; Suppression rate (%) ([7]; dosage 30 mg/kg i.d.): 93%
Clc1ccc(-c2cc3[nH]ccn3n2)cc1 [Example 8, 6-(p-chlorophenyl)-1H-imidazo[1,2-b]pyrazole]	–	–	0/3	76.5	100	74.7	–	–
Cc1c(-c2ccccc2)nn2cc[nH]c12 [Example 4, 7-methyl-6-phenyl-1H-imidazo[1,2-b]pyrazole]	2.4	34.1	0/5	64.9	100	60.5	26.7	Suppression rate (%) ([7]; dosage 10 mg/kg i.d.): 67%; Suppression rate (%) ([7]; dosage 30 mg/kg i.d.): 100%
